According to publication PMC11600623 (Clinical and Translational Science, 2024):
Where two headings read alike, the source gives them in different places.

How the values were obtained:
Format in all cases: in vivo, human
[1] = Population PK model of AC886
[2] = Influence of covariates on steady-state exposure metrics
[3] = Population PK model of quizartinib
[4] = final model, typical subject, f MET fixed to 0.5
[5] = newly diagnosed AML vs R/R AML and non-AML reference
[6] = residual unexplained variability
[7] = newly diagnosed AML vs R/R AML reference

CC(C)(CO)c1cc(NC(=O)Nc2ccc(-c3cn4c(n3)sc3cc(OCCN5CCOCC5)ccc34)cc2)no1 [AC886]
IIV (CV) for CLAC886 ([1]; AML patients): 74%
Interindividual variability of systemic clearance ([1]; abstract statement for both moieties): approximately 70 % coefficient of variation
Fractional change in CLAC886 for Black race ([1]; final model covariate effect): 0.488
Fractional change in CLAC886 for non-AML subjects ([1]; final model covariate effect): 0.843
Fractional change in CLAC886 with strong CYP3A inhibitors ([1]; final model covariate effect): 0.298
Fractional change in V c,AC886 with strong CYP3A inhibitors ([1]; final model covariate effect): 2.79
Q AC886 (apparent intercompartmental clearance) ([1]; final model, typical subject): 3.76 L/h
V p,AC886 (apparent peripheral volume of distribution) ([1]; final model, typical subject): 68.5 L
CLAC886 (apparent CL of AC886) [1, 4]: 4.61 L/h
V c,AC886 (apparent central volume of distribution) [1, 4]: 8.93 L
IIV CLAC886 AML patients ([1]; interindividual variability): 0.740 CV
IIV CLAC886 non-AML subjects ([1]; interindividual variability): 0.516 CV
IIV V c,AC886 ([1]; interindividual variability): 1.36 CV
Fractional change in f MET during Consolidation [1, 5]: 0.272
Fractional change in f MET during Continuation [1, 5]: −0.249
Fractional change in f MET during Induction [1, 5]: 0.715
Additive RUV log scale AML patients [1, 6]: 0.452 CV
Additive RUV log scale non-AML subjects [1, 6]: 0.312 CV
Change of exposure compared to all other race categories ([2]; Black race, median difference): ~0.7 fold

CC(C)(C)c1cc(NC(=O)Nc2ccc(-c3cn4c(n3)sc3cc(OCCN5CCOCC5)ccc34)cc2)no1 [quizartinib]
IIV D1 [3]: 82 % coefficient of variation (CV)
IIV Q 1,quiz [3]: 69 % CV
IIV (CV) for F rel ([3]; AML patients): 44%
Age effect on V p1,quiz ([3]; exponential covariate model): 0.0152 1/year
D1 (duration of zero-order input to depot compartment) ([3]; final model): 0.710 h
Shape box-cox parameter for IIV on F rel for AML patients ([3]; final model): −1.28
T lag (absorption lag time) ([3]; final model): 0.196 h
k a (first-order absorption rate constant) ([3]; final model): 1.10 h⁻¹
Fractional change in CLquiz for Black race ([3]; final model covariate effect): −0.261
Fractional change in CLquiz with strong CYP3A inhibitors ([3]; final model covariate effect): −0.301
Fractional change in F rel with moderate CYP3A inhibitors ([3]; final model covariate effect): 0.116
Fractional change in F rel with strong CYP3A inhibitors ([3]; final model covariate effect): 0.273
Fractional change in V c,quiz for females ([3]; final model covariate effect): −0.169
Fractional change in k a for non-AML subjects ([3]; final model covariate effect): −0.188
Q 1,quiz (apparent intercompartmental clearance 1) ([3]; final model, typical subject): 40.7 L/h
Q 2,quiz (apparent intercompartmental clearance 2) ([3]; final model, typical subject): 0.757 L/h
V p1,quiz (apparent peripheral volume of distribution 1) ([3]; final model, typical subject): 312 L
V p2,quiz (apparent peripheral volume of distribution 2) ([3]; final model, typical subject): 91.9 L
Vd ([3]; human, plasma, oral): 371 L
clearance ([3]; human, plasma, oral): 111 mL/min
IIV D1 ([3]; interindividual variability): 0.821 CV
IIV F rel AML patients ([3]; interindividual variability): 0.444 CV
IIV F rel non-AML subjects ([3]; interindividual variability): 0.256 CV
IIV Q 1,quiz ([3]; interindividual variability): 0.691 CV
IIV T lag ([3]; interindividual variability): 0.647 CV
IIV V c,quiz ([3]; interindividual variability): 0.186 CV
IIV k a ([3]; interindividual variability): 0.423 CV
Fractional change in F rel during Consolidation [3, 7]: −0.192
Fractional change in F rel during Continuation [3, 7]: 0.418
Fractional change in F rel during Induction [3, 7]: −0.419
F rel for non-AML subjects ([3]; relative to AML patients): 1.73
Additive RUV log scale AML patients [3, 6]: 0.440 CV
Additive RUV log scale non-AML subjects [3, 6]: 0.102 CV
Increase of exposure ([2]; concomitant administration of strong CYP3A inhibitors): ~2 fold
Exposure in non-AML subjects compared to AML patients ([2]; higher in non-AML subjects): approximately 1.7 fold
Increase of steady-state area under the curve during the dosing interval (AUCss) ([2]; use of strong CYP3A inhibitors): 1.8 fold
